The first experiment addresses T1, MCR-1 (Homo sapiens, UniProt Q01726).
T1 construct: expressed in transfected cells; host or cells: HEK 293
The experiment can be described thus: Melanocortin receptor binding assay, competition with 125I-HP 467, HEK 293 cells expressing hMCR-1. As to conditions: binding to MC receptors, Table 1. A digest of the protocol:
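Intact-cell competition binding, 2.5 hr at 37 °C, in PBS/10% calf serum/1 mM CaCl2; hMCR-4 cells at 4×10^3 per tube, hMCR-1 cells at 2×10^4 per tube. Filtration on BSA/CaCl2-soaked GF/B, cold 50 mM Tris pH 7.4 washes, scintillation count.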
T1 sequence (Q01726 whole entry): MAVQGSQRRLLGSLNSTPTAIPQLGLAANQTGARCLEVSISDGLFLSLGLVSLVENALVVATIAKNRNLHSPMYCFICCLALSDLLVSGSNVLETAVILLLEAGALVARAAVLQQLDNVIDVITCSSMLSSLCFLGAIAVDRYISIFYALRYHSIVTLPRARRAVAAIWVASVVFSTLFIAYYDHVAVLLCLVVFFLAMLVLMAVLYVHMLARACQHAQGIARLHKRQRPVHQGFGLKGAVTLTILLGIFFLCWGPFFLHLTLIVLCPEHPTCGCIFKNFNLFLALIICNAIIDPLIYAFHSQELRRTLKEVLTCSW
Consider `CCCCNC(CN)CCCCN1Cc2ccccc2C(CNC2CCCCC2)C1c1ccc(NCC)cc1` (stereo not drawn) [TRG 2411-50], for which the “effectiveness as MC receptor ligand” value is “particularly effective MC receptor ligands”.
Same read-out and setting: the result for `CCNc1ccc(C2C(CN)c3ccccc3CN2CCCCC(CN)NCC)cc1` (stereo not drawn) [TRG 2411-60] reads “particularly effective MC receptor ligands”.

The same experiment, now with this note: competition with 125I-HP 467, HEK 293 cells expressing MCR-1; read-out: MC-1 IC50.
In general, IC50 refers to the midpoint of a concentration-inhibition curve. Regarding `NCC(CCCCN1Cc2ccccc2C(CNCCc2ccccc2)C1c1ccc(-c2ccccc2)cc1)NCc1ccccc1` (stereo not drawn) [TRG 2411-13], the IC50 is 1.36 µM.
For the molecule `CCNC(CN)CCCCN1Cc2ccccc2C(CNC2CCCCC2)C1c1ccc(-c2ccccc2)cc1` (stereo not drawn) [TRG 2411-14], the IC50 was 0.46 µM.
Turning to `NCC(CCCCN1Cc2ccccc2C(CNC2CCCCC2)C1c1ccc(-c2ccccc2)cc1)NCCO` (stereo not drawn) [TRG 2411-16], the IC50 amounted to 0.9 µM.
On the same count and under the same terms, the result for `CNC(CNC(CN)CCCCN1Cc2ccccc2C(CNC2CCCCC2)C1c1ccc(-c2ccccc2)cc1)Cc1ccccc1` (stereo not drawn) [TRG 2411-17] reads 0.39 µM; that for `COCCNC(CN)CCCCN1Cc2ccccc2C(CNC2CCCCC2)C1c1ccc(-c2ccccc2)cc1` (stereo not drawn) [TRG 2411-19], 0.49 µM; that for `NCC(N)CCCCN1Cc2ccccc2C(CN)C1c1ccc(-c2ccccc2)cc1` (stereo not drawn) [TRG 2411-23], 0.59 µM.
Same read-out and setting: under `CCNC(CN)CCCCN1Cc2ccccc2C(CN)C1c1ccc(-c2ccccc2)cc1` (stereo not drawn) [TRG 2411-24] stands 0.53 µM; under `NCC(CCCCN1Cc2ccccc2C(CN)C1c1ccc(-c2ccccc2)cc1)NCCc1ccccc1` (stereo not drawn) [TRG 2411-25], 0.35 µM; under `NCCNC(CN)CCCCN1Cc2ccccc2C(CN)C1c1ccc(-c2ccccc2)cc1` (stereo not drawn) [TRG 2411-27], 0.66 µM.
Take `NCC1c2ccccc2CN(CCCCC(CN)N2CCCC2)C1c1ccc(-c2ccccc2)cc1` (stereo not drawn) [TRG 2411-31]: the IC50 was 0.97 µM.
Take `COCCNC(CN)CCCCN1Cc2ccccc2C(CN)C1c1ccc(-c2ccccc2)cc1` (stereo not drawn) [TRG 2411-32]: the IC50 is 0.55 µM.
The same measure, in the same setting: the result for `NCC(CCCCN1Cc2ccccc2C(CN)C1c1ccc(-c2ccccc2)cc1)NCC1CCCCC1` (stereo not drawn) [TRG 2411-34] reads 0.35 µM; that for `CCNc1ccc(C2C(CNCCc3ccccc3)c3ccccc3CN2CCCCC(N)CN)cc1` (stereo not drawn) [TRG 2411-36], 0.13 µM; that for `CCNc1ccc(C2C(CNCCc3ccccc3)c3ccccc3CN2CCCCC(CN)NCC)cc1` (stereo not drawn) [TRG 2411-37], 0.13 µM.
Same read-out and setting: under `CCNc1ccc(C2C(CNCCc3ccccc3)c3ccccc3CN2CCCCC(CN)NCCC2CCCCC2)cc1` (stereo not drawn) [TRG 2411-47] stands 0.22 µM; under `CCNc1ccc(C2C(CNCCc3ccccc3)c3ccccc3CN2CCCCC(CN)NCCN)cc1` (stereo not drawn) [TRG 2411-48], 0.3 µM.
For `CCNc1ccc(C2C(CNC3CCCCC3)c3ccccc3CN2CCCCC(CN)NCC)cc1` (stereo not drawn) [TRG 2411-49], the IC50 worked out at 0.22 µM.
For `CCCCNC(CN)CCCCN1Cc2ccccc2C(CNC2CCCCC2)C1c1ccc(NCC)cc1` (stereo not drawn) [TRG 2411-50], the IC50 worked out at 0.08 µM.
Take `CCNc1ccc(C2C(CNC3CCCCC3)c3ccccc3CN2CCCCC(CN)NCc2ccc(OC)cc2)cc1` (stereo not drawn) [TRG 2411-56]: the IC50 turned out to be 0.13 µM.
On the same count and under the same terms, under `CCNc1ccc(C2C(CN)c3ccccc3CN2CCCCC(N)CN)cc1` (stereo not drawn) [TRG 2411-59] stands 0.37 µM; under `CCNc1ccc(C2C(CN)c3ccccc3CN2CCCCC(CN)NCC)cc1` (stereo not drawn) [TRG 2411-60], 0.05 µM.
With `CCCCNC(CN)CCCCN1Cc2ccccc2C(CN)C1c1ccc(NCC)cc1` (stereo not drawn) [TRG 2411-61], the IC50 came out at 0.11 µM.
On the same count and under the same terms, the result for `CCNc1ccc(C2C(CN)c3ccccc3CN2CCCC[C@@H](CN)NCCc2ccc(Br)cc2)cc1` (stereo partly drawn) [TRG 2411-64] reads 0.48 µM; that for `CCNc1ccc(C2C(CN)c3ccccc3CN2CCCCC(CN)NCCc2ccc(OC)cc2)cc1` (stereo not drawn) [TRG 2411-65], 0.39 µM; that for `CCNc1ccc(C2C(CN)c3ccccc3CN2CCCCC(CN)NCc2ccccc2)cc1` (stereo not drawn) [TRG 2411-66], 0.11 µM.
Still for that read-out and setting: the result for `CCNc1ccc(C2C(CN)c3ccccc3CN2CCCCC(CN)NCc2ccc(Cl)cc2)cc1` (stereo not drawn) [TRG 2411-67] reads 0.21 µM; that for `CCNc1ccc(C2C(CN)c3ccccc3CN2CCCCC(CN)NCc2ccc(OC)cc2)cc1` (stereo not drawn) [TRG 2411-68], 0.12 µM; that for `CCNc1ccc(C2C(CN)c3ccccc3CN2CCCCC(CN)NCCc2ccc3ccccc3c2)cc1` (stereo not drawn) [TRG 2411-69], 0.37 µM.

Source of the values: patent publication US6608082B1, “Treatment of erectile dysfunction using isoquinoline compound melanocortin receptor ligands” (Lion Bioscience AG, priority 1998, dated 2003).
